Test results: patent publication US10822318B2, “Lactone-based probes and methods of use thereof” (REGENTS OF THE UNIVERSITY OF MINNESOTA, priority 2017, dated 2020)

Columns and labels:
PBP2x and PBP2b = experiment: Dual-labeling experiments, 7FL followed by 8T; format: cell-based, S. pneumoniae; settings: both 5 μg/mL for 20 minutes
Description: S. pneumoniae E193 (Δpbp1b) cells were grown in BHI broth at 37° C. in an atmosphere of 5% CO2 to reach an OD620 of 0.2-0.25. Cells from 1.5 ml of culture were harvested by centrifugation (16,100×g for 2 min at RT) and washed with 1 ml of PBS, pH 7.4. Cell pellets were resuspended in 50 μl of PBS containing 5 μg/ml lactone-L-Phe-FL (7FL) and incubated at RT for 20 min. Cells were then washed with 1 ml PBS prior to suspension in 50 μl of 5 μg/ml solution of Lac-D-Phe-TAMRA (8T) in PBS. After incubation for 20 min at RT, cells were washed and resuspended in 100 μl of PBS containing 10 mg/ml of lysozyme. Cell lysis and sample preparation for SDS PAGE was followed as described earlier.

PBPs = experiment: Gel-based analysis of PBP labeling by β-lactone probes in S. pneumoniae cells; format: cell-based; settings: S. pneumoniae whole cells, probe 5 μg/ml, 20 min
Description: Strain IU1945, an unencapsulated derivative of serotype 2 S. pneumoniae strain D39, was grown statically in brain heart infusion (BHI) medium in 100×17 mm tubes by incubation in an atmosphere of 5% CO2 at 37° C. to an OD620 of ˜0.2. For labeling experiments, overnight cultures that were still in exponential phase (OD620=0.1-0.4) were diluted to OD620=0.002-0.004 and grown as above. Samples with OD620=0.15-0.20 were utilized in labeling experiments conducted as previously described (Kocaoglu, O, et al. (2013) Curr Protoc Chem Biol 5, 239), and summarized as follows: Cell pellets from 1.5 ml of S. pneumoniae cultures were harvested by centrifugation (16,100×g for 2 min at RT) and washed with phosphate buffered saline (PBS; pH 7.4). […] The protein concentration was measured by NanoDrop 1000 Spectrophotometer (Thermo Scientific) or NanoPhotometer P330 (IMPLEN). […] The protein bands were separated by gel electrophoresis for 1.5 h at 180 V, 400 mA, 60 W. The gel was rinsed with distilled water three times before fluorescence scanning. […]
After SDS-PAGE, labeled proteins were visualized at 50-μm resolution in gels using a Typhoon 9210 gel scanner (Amersham Biosciences) with 580-nm bandpass filter for TAMRA, 526-nm short-pass filter for fluorescein and BODIPY FL, and 670-nm bandpass filter for BODIPY 650/665. All gel images were analyzed using ImageJ software (National Institutes of Health). […]

In the case of “(2S,3R)-β-lactone-L-Phe-fluorescein [Probe 7FL]”, the “PBP visualized in dual labeling” value (PBP2x and PBP2b) is reported as “PBP2x” and the “PBPs labeled (gel-based labeling profile)” value (PBPs) is reported as “only PBP1b and PBP2x”.

In the case of “(2S, 3R)-β-lactone-D-Phe-TAMRA [Probe 8T]”, the “PBP visualized in dual labeling” value (PBP2x and PBP2b) is reported as “PBP2b” and the “PBPs labeled (gel-based labeling profile)” value (PBPs) is reported as “PBP1b, PBP2x and PBP2b”.
